# Measured values from US20140193383A1, “USE OF LACTOBACILLUS KEFIRANOFACIENS AS A PROBIOTIC AND A SYNBIOTIC” (Technologies Biolactis Inc., priority 2005, published 2014).
# Columns and labels:
# [1] = system: oxazolone-induced atopic contact dermatitis; assay: Atopic contact dermatitis, prophylactic protocol (MPM); assay type: in vivo, CD-1 mice; conditions: Protection against atopic contact dermatitis (day 9); Controls 0.45
# Source text: (§1) A murine model of atopic contact dermatitis induced with oxazolone in mice was used to determine the anti-inflammatory effect of the whey fermented with Lactobacillus kefiranofaciens […]. This model of inflammation has proven to be a sensitive and useful tool to determine efficacy and potency of several anti-inflammatory and immunosuppressive drugs used in dermatological disorders like psoriasis for example. Drugs like glucocorticoids are commonly used to relieve skin and joint inflammation. Whey fermented with […] administered orally either in a prophylactic (Table 24) or therapeutic fashion (Table 23) reduced the inflammation as shown with a reduction of around 30% of ear and thickness in both cases. […] The ear thickness of the mice was measured every day. The prophylactic anti-inflammatory potential of MPM (patent PCT/CA2002/01988) was evaluated firstly by the administration of MPM, 7 days prior to sensitization. […] Dermatitis was induced as described previously and ear thickness was measured every day. The therapeutic anti-inflammatory potential of MPM was evaluated by the administration of MPM only after the first challenge. […] The mouse atopic contact dermatitis was done as described previously and ear thickness was measured every day. The mice's weight was measured twice a week.
# [2] = system: oxazolone-induced atopic contact dermatitis; assay: Atopic contact dermatitis, therapeutic protocol (MPM); assay type: in vivo, CD-1 mice; conditions: Treatment of atopic contact dermatitis (day 17); Controls 0.55
# Source text: as §1
# [3] = system: oxazolone-induced atopic contact dermatitis; assay: Atopic contact dermatitis, therapeutic protocol (R2C2); assay type: in vivo, mice
# Source text: A murine model of atopic contact dermatitis induced with oxazolone in mice was used to determine the anti-inflammatory effect of the whey fermented with Lactobacillus kefiranofaciens […]. This model of inflammation has proven to be a sensitive and useful tool to determine efficacy and potency of several anti-inflammatory and immunosuppressive drugs used in dermatological disorders like psoriasis for example. Drugs like glucocorticoids are commonly used to relieve skin and joint inflammation. Whey fermented with […] administered orally either in a prophylactic (Table 24) or therapeutic fashion (Table 23) reduced the inflammation as shown with a reduction of around 30% of ear and thickness in both cases. In more details, the murine model of atopic contact dermatitis was based on those firstly described by Garrigue et al. (Contact Dermatitis., 30(4):[…], 1994) and modified as follows: the CD-1 mice's abdomen were removed of hair and the sensitization phase was done with the application of 100 microliters of oxazolone 5% in acetone on the abdomen (Sigma-Aldrich, Oakville, On). After 4 days, the elicitation phase (first challenge) was done with application of 50 microliters of oxazolone 5% in acetone on the right ear (25 microliters each side of the ear). The second challenge was done 7 days after the first challenge with the same procedure. The ear thickness of the mice was measured every day. The therapeutic anti-inflammatory potential of […] was evaluated in an animal model of atopic contact dermatitis by feeding the bacterial suspension after the first challenge. The protective effect of […] was compared to that of hydrocortisone, because of its well-known anti-inflammatory effects on dermatitis.
# [4] = system: systolic blood pressure of SHR rats; assay: Anti-hypertensive potential in SHR rats (tail-cuff SBP); assay type: in vivo, SHR female rats
# Description: Anti-hypertensive potential of whey fermented with […] (MPM) was evaluated by using SHR female rats (6 weeks old). 12 rats were randomized according to their weight in each treatment group. They were housed under specific pathogen-free conditions and maintained in a 12 hour-light/dark cycle. All animals consumed standard diet and received water ad libitum. Groups were forced-fed daily either 1 mL of water (placebo group), MPM (5 mL/kg) or Enalapril-malate (10 mg/kg), because of its well-known hypotensive effects. Systolic blood pressure (SBP) was measured weekly by the tail-cuff method with the automated RTBP2000 Tail Blood Pressure system (Kent Scientific, Torrington, Conn., USA). Data collections were made weekly and an average of 3 measurements was taken as initial mean SBP. Data was acquired and analysed with Biopac Student Lab Pro® software version 3.6.1 (Biopac System, Goleta, Calif., USA). […] A steady decrease of the SBP was observed every week with a maximum change of at least 25% at week 4 for the animals forced-fed with MPM.
# [5] = system: diet-induced hyperlipidemia and weight gain; assay: Model of hypertriglyceridemia and obesity (fructose 10% in drinking water); assay type: in vivo, Wistar rats
# Description: The whey fermented with L. kefiranofaciens […] was tested for its capacity to regulate weight gain and blood lipid levels in a diet-induced rat model of hyperlipidemia. This protocol allows a comparison to niacin (vitB3) in regulating diet-induced hyperlipidemia in rats. […] The hypo-lipidemic effects of the whey fermented with L. kefiranofaciens […] during the fructose treatment period were evaluated. Blood samples are collected before the start of fructose treatment, and once a week for 4 weeks during the induction of hyperlipidemia. Serum levels of triglycerides were measured.
# [6] = system: poloxamer 407 induced hyperlipidemia; assay: Poloxamer 407 rat model of hyperlipidemia (strains); assay type: in vivo, Wistar rats
# Description: (§2) The different bacterial strains were tested for their capacity to regulate blood lipid levels in a rat model of hyperlipidemia. […] Wistar rats injected i.p. with poloxamer 407 rapidly develop severe but transient hyperlipidemia. […] The hypo-lipidemic effect of L. kefiranofaciens strains is evaluated in groups of rats pre-treated orally for 7 days before injection of poloxamer. Blood lipids were measured before injection and at 24 and 72 hours following induction of hyperlipidemia. Plasma levels of triglycerides, and cholesterol (LDL) were evaluated.
# Group 1: 4 rats, gavage saline Group 2: 4 rats, gavage niacin (100 mg/kg) Group 3: 4 rats, gavage R2C2 (1×10^8 cfu/ml) Group 4: 4 rats, gavage INIX (1×10^8 cfu/ml) Group 5: 4 rats, gavage BioSP (1×10^8 cfu/ml) Group 6: 4 rats, gavage K2 (1×10^8 cfu/ml)
# [7] = system: poloxamer 407 induced hyperlipidemia; assay: Model of hyperlipidemia, poloxamer 407 (Example 8a); assay type: in vivo, Wistar rats
# Description: as §2, with “whey fermented with L. kefiranofaciens R2C2 was” for “different bacterial strains were”, “triglycerides, cholesterol, HDL, LDL” for “triglycerides,”, “glucose” for “cholesterol (LDL)”
# Group 1: 4 rats, gavage saline Group 2: 4 rats, gavage niacin (100 mg/kg) Group 3: 4 rats, gavage whey fermented with L. kefiranofaciens R2C2 (1 ml per gavage)
# [8] = system: poloxamer 407 induced hyperlipidemia; assay: Anti-triglyceridemia potential, poloxamer 407 rats (Example 6); assay type: in vivo, female Wistar rats
# Description: For the experiment, female Wistar rats, 7 weeks old, weighing 125-150 g. were purchased from Charles River Canada. Rats were randomized into 4 different groups, each composed of at least 6 animals. […] They were housed under specific pathogen-free conditions and maintained in a […] light/dark cycle. All animals consumed standard diet and received water ad libitum. MPM was in a lyophilized form and prepared daily by adding 80% of water and mixed to create back a yoghurt-like product. The bacterial strain Lactobacillus […] was routinely cultured in MRS broth (BD Biosciences, Mississauga, ON, Canada) at 37° C. for a period of 24 h. Bacteria were then pelleted by centrifugation at 4000 rpm for 8 minutes and re-suspended at a concentration of 10^9 cells/mL in sterile PBS (Invitrogen). Niacin was dissolved in water in order for the rats to receive a dose of 100 mg of treatment per kg. […] The poloxamer 407 solution for intraperitoneal (i.p.) injection was prepared by combining the agent with sterile water and refrigerating overnight to facilitate dissolution of the polymer by the cold method of incorporation. […] Approximately 1 mL of blood was collected from the jugular vein in 3 mL syringes and immediately transferred in lithium-heparinized plastic tubes (Sarstedt, Montreal, QC, Canada). Tubes were lightly shaken for 10 seconds, and then centrifuged to allow separation of the plasma. Plasma samples were collected in clean 1.5 mL eppendorf and immediately frozen at -80° C. until the time of analysis. For blood collection, each animal was anesthetized using isoflurane (AErrane, Baxter Corporation, Deerfield, Ill., USA). […] Animals were sacrificed after the last blood collection by the CO2 asphyxia method. […] Samples from all experimental groups were analyzed for total cholesterol and triglycerides. All analysis were performed in an independent laboratory (Laboratoire medical Biron, 4105-[…] Blvd, Brossard, Québec, Canada, J4Y 2P4), ISO 9002 certified, offering a reliable plasma lipids quantification service.
# [9] = system: visceral fat in Spontaneous Hypertensive Rat; assay: Weight and fat management, SHR model (visceral fat); assay type: in vivo, SHR rats; conditions: once a day for 56 days, saline 100
# Description: The whey fermented with L. kefiranofaciens R2C2 was tested for its capacity to regulate fat distribution as well as weight gain in the Spontaneous Hypertensive Rat model and in ovariectomized rats. The SHR model was used as previously described but used to monitor the levels of visceral fat accumulating in the belly following. The animals were fed with 1 ml of whey fermented with L. kefiranofaciens R2C2 (20% solid) once a day for 56 days (P.O. q1×56)
# Group 1: 12 rats, gavage saline Group 2: 12 rats, gavage niacine (100 mg/kg) Group 3: 12 rats, gavage whey fermented with L. kefiranofaciens R2C2 (1 ml per gavage)
# [10] = system: DSS-induced intestinal inflammation; assay: Effect of live, pasteurized or irradiated bacteria on DSS intestinal inflammation; assay type: in vivo, C57BL/6 mice
# Description: C57BL/6 mice were treated by gavage (p.o.) with 10^8 cfu/ml of different L. kefiranofaciens strains once per day for the duration of the experiment. Animals received the strains R2C2 or BioSP as live, pasteurized or irradiated bacteria. Intestinal inflammation was induced by the addition of DSS (2.5%) to the drinking water for 8 days and then replaced with fresh water for 8 days to evaluate the rapidity of recovery process from inflammation for the different treatment groups. The level and progression of inflammation was evaluated through measurements of weight variation and combined scores of diarrhea and occult blood. Colon length and myeloperoxidase (MPO) activity in the colon were also evaluated at the end of the experiment.
# [11] = plasma, before poloxamer, saline 1.55
smiles,measurement,setting,value
"C[C@]12CCC(=O)C=C1CC[C@@H]1[C@@H]2[C@@H](O)C[C@@]2(C)[C@H]1CC[C@]2(O)C(=O)CO [Hydrocortisone, hydrocortisone]",Ear thickness (mm),[1],0.30 mm
same,Ear thickness (mm),[2],0.29 mm
same,ear thickness (mm),"[3]; Day 15, Controls 0.26",0.18 mm
same,ear thickness (mm),"[3]; Day 17, Controls 0.39",0.27 mm
same,ear thickness (mm),"[3]; Day 22, Controls 0.34",0.15 mm
"CCOC(=O)[C@H](CCc1ccccc1)N[C@@H](C)C(=O)N1CCC[C@H]1C(=O)O [Enalapril, Enalapril-malate]",Systolic blood pressure (mm Hg),"[4]; Week 0, Controls 185",184 mm Hg
same,Systolic blood pressure (mm Hg),"[4]; Week 1, Controls 181",165 mm Hg
same,Systolic blood pressure (mm Hg),"[4]; Week 2, Controls 184",156 mm Hg
same,Systolic blood pressure (mm Hg),"[4]; Week 3, Controls 183",154 mm Hg
same,Systolic blood pressure (mm Hg),"[4]; Week 4, Controls 187",154 mm Hg
"O=C(O)c1cccnc1 [Niacin, niacin]","Levels of triglyceride, % relative to saline on day 0","[5]; Day 0, saline 100",100%
same,"Levels of triglyceride, % over saline group","[5]; Day 7 of fructose, saline 260",150%
same,"Levels of triglyceride, % over saline group","[5]; Day 21 of fructose, saline 270",160%
same,Plasma triglycerides after pre-treatment of 7 days,[6]; before poloxamer,plasma triglycerides were reduced
same,Triglycerides (mmol/L) after 7 days of treatment,[6]; [11],0.97 mmol/L
same,Triglycerides (mmol/L) 72 h post-induction of hyperlipidemia,"[6]; plasma, saline 95.42",69.96 mmol/L
same,Plasma triglycerides 72 hours after induction of hyperlipidemia,"[6]; rat, in vivo",most important reduction
same,Triglycerides (mmol/L) after 7 days of treatment,[7]; [11],0.97 mmol/L
same,Triglycerides (mmol/L) 72 h post-induction of hyperlipidemia,"[7]; plasma, saline 97.72",69.96 mmol/L
same,Plasma triglycerides after pre-treatment of 7 days,"[7]; rat, in vivo",plasma triglycerides were reduced
same,CH levels (72 hours post induction of hyperlipidemia) (%),"[8]; cholesterol, Controls 100",33%
same,Triglyceride levels (7-day treatment),"[8]; plasma, before poloxamer 407, Controls 1.83",1.00 mmol/L
same,Triglyceride levels (72 hours post induction of hyperlipidemia),"[8]; plasma, Controls 95.42",66.96 mmol/L
same,% of animals with visceral fat,[9],70%
Nc1ccc(O)c(C(=O)O)c1 [5-ASA],Weight loss (%) associated with 8 days of DSS exposure,"[10]; Day 5, DSS+saline −1.83",−3.21%
same,Combined occult blood and diarrhea scores (scale of 8),"[10]; Day 5 of DSS, DSS+saline 2.25",1.75
same,Weight loss (%) associated with 8 days of DSS exposure,"[10]; Day 6, DSS+saline −5.23",−3.64%
same,Combined occult blood and diarrhea scores (scale of 8),"[10]; Day 6 of DSS, DSS+saline 4.50",3.75
same,Weight loss (%) associated with 8 days of DSS exposure,"[10]; Day 7, DSS+saline −8.79",−5.90%
same,Combined occult blood and diarrhea scores (scale of 8),"[10]; Day 7 of DSS, DSS+saline 6.50",4.25
same,Weight loss (%) associated with 8 days of DSS exposure,"[10]; Day 8, DSS+saline −13.5",−8.07%
same,Combined occult blood and diarrhea scores (scale of 8),"[10]; Day 8 of DSS, DSS+saline 6.50",5.50
same,MPO activity (U/g of tissue),"[10]; colon, post-mortem, 8 days DSS and 8 days of recovery, no DSS 0.056, DSS+saline 0.226",0.043 U/g of tissue
same,Protective effect on DSS inflammation,"[10]; live, pasteurized or irradiated bacteria, 5-ASA comparator",comparable protective effects
